From patent publication US6133292A, “Diaryl-5-alkyl-5-methyl-2-(5H)-furanones as selective cyclooxygenase-2-inhibitors” (Merck Frosst Canada & Co., priority 1998, dated 2000)
Values belong to the molecule of their own block, whether it stands above or below them.

Experiment: Pharmacokinetics in rats (half-life)
Type: in vivo, rat (male Sprague Dawley)
Conditions: rat, blood, read-out: T 1/2 in Rats (converted)
Description: Per Os Pharmacokinetics in Rats--Procedure:
The animals are housed, fed and cared for according to the Guidelines of the Canadian Council on Animal Care. Male Sprague Dawley rats (325-375 g) are fasted overnight prior to each PO blood level study. The rats are placed in the restrainer one at a time and the box firmly secured. The zero blood sample is obtained by nicking a small (1 mm or less) piece off the tip of the tail. The tail is then stroked with a firm but gentle motion from the top to the bottom to milk out the blood. Approximately 1 mL of blood is collected into a heparirnized vacutainer tube.
Compounds are prepared as required, in a standard dosing volume of 10 mL/kg, and administered orally by passing a 16 gauge, 3" gavaging needle into the stomach. Subsequent bleeds are taken in the same manner as the zero bleed except that there is no need to nick the tail again. The tail is cleaned with a piece of gauze and milked/stroked as described above into the appropriately labelled tubes.
Immediately after sampling, blood is centrifuged, separated, put into clearly marked vials and stored in a freezer until analysed. Typical time points for determination of rat blood levels after PO dosing are 0, 15 min, 30 min, 1 h, 2 h, 4 h, and 6 h.
After the 4 hr time point bleed, food is provided to the rats ad libitum. Water is provided at all times during the study.
The following vehicles may be used in PO rat blood level determinations:
Compounds for PO blood levels can be in suspension form. For better dissolution, the solution can be placed in a sonicator for approximately 5 minutes.
For analysis, aliquots are diluted with an equal volume of acetonitrile and centrifuged to remove protein precipitate. The supernatant is injected directly onto a C-18 HPLC column with UV detection. Quantitation is done relative to a clean blood sample spiked with a known quantity of drug.
Intravenous Pharmacokinetics in Rats--Procedure
The animals are housed, fed and cared for according to the Guidelines of the Canadian Council on Animal Care. Male Sprague Dawley (325-375 g) rats are placed in plastic shoe box cages with a suspended floor, cage top, water bottle and food. The compound is prepared as required, in a standard dosing volume of 1 mL/kg.
Rats are bled for the zero blood sample and dosed under CO2 sedation. The rats, one at a time, are placed in a primed CO2 chamber and taken out as soon as they have lost their righting reflex. The rat is then placed on a restraining board, a nose cone with CO2 delivery is placed over the muzzle and the rat restrained to the board with elastics. With the use of forceps and scissors, the jugular vein is exposed and the zero sample taken, followed by a measured dose of compound which is injected into the jugular vein. Light digital pressure is applied to the injection site, and the nose cone is removed. The time is noted. This constitutes the zero time point.
The 5 min bleed is taken by nicking a piece (1-2 mm) off the tip of the tail. The tail is then stroked with a firm but gentle motion from the top of the tail to the bottom to milk the blood out of the tail. Approximately 1 mL of blood is collected into a heparinized collection vial. Subsequent bleeds are taken in the same fashion, except that there is no need to nick the tail again. The tail is cleaned with a piece of gauze and bled, as described above, into the appropriate labelled tubes. Typical time points for determination of rat blood levels after I.V. dosing are either a) 0, 5 min, 15 min, 30 min, 1 h, 2 h, 6 h, or b) 0, 5 min, 30 min, 1 h, 2 h, 4 h, 6 h.
The following vehicles may be used in IV rat blood level determinations:
DMSO (dimethylsulfoxide): Restricted to a dose volume of 0.1 mL per animal
PEG 200: Not more than 60% mixed with 40% sterile water --1 mL/kg
With Dextrose, either sodium bicarbonate or sodium carbonate can be added if the solution is cloudy. […]

SMILES: CC[C@@]1(C)OC(=O)C(c2ccc(F)c(F)c2)=C1c1ccc(S(C)(=O)=O)cc1 [h, (5R)-3-(3,4-difluorophenyl)-5-ethyl-5-methyl-4-[4-(methylsulfonyl)phenyl] -2,5-dihydro-2-furanone]
- half-life: 216 min

SMILES: CC[C@]1(C)OC(=O)C(c2ccc(F)c(F)c2)=C1c1ccc(S(C)(=O)=O)cc1 [i, (5S)-3-(3,4-difluorophenyl)-5-ethyl-5-methyl-4-[4-(methylsulfonyl)phenyl] -2,5-dihydro-2-furanone]
- half-life: 288 min

SMILES: CCCC1(C)OC(=O)C(c2ccc(F)cc2)=C1c1ccc(S(C)(=O)=O)cc1 (centres unmarked) [n, 3-(4-fluorophenyl)-5-methyl-4-[4-(methylsulfonyl)phenyl]-5-propyl-2,5-dihydro-2-furanone]
- half-life: ~60 min

Second part, the molecule after the results:

- half-life: > 1440 min
SMILES: CC1(C)OC(=O)C(c2ccc(F)cc2)=C1c1ccc(S(C)(=O)=O)cc1 [Compound T3-1, 3-(4-fluorophenyl)-5,5-dimethyl-4-[4-(methylsulfonyl)phenyl]-2,5-dihydro-2-furanone, reference compound]

- half-life: 180 min
SMILES: CCC1(C)OC(=O)C(c2ccc(F)cc2)=C1c1ccc(S(C)(=O)=O)cc1 (centres unmarked) [c, 5-ethyl-3-(4-fluorophenyl)-5-methyl-4-[4-(methylsulfonyl)phenyl]-2,5-dihydro-2-furanone]
